Like-named read-outs stand apart in the source and are kept apart here.
Columns and labels:
dopamine D2 receptors = target: T1, dopamine D2 receptors (Bos taurus, UniProt P20288); assay: Radioligand binding to dopamine D2 receptors ([3H]-Spiperone, bovine caudate nuclei membranes); conditions: for affinity and selectivity for dopamine D2 receptors (in words): result in words
T1 construct: membranes derived from bovine caudate nuclei assay were employed; from tissue; host or cells: bovine caudate nuclei membranes (brains from a local slaughterhouse)
Protocol: (§1) To test the selectivity and specificity of the present compounds for binding to dopamine receptors, tests were conducted using the following standard procedures.
(§2) To test binding to dopamine receptors, membranes derived from bovine caudate nuclei assay were employed. Bovine brains were obtained fresh from a local slaughterhouse. The caudate nuclei were dissected out and homogenized in Buffer A (50 mM Tris; 1 mM Na2 -EDTA; 5 mM KCl; 1 mM MgCl2; 2 mM CaCl2; pH 7.4) using a Brinkman Polytron. The homogenate was centrifuged at 40,000 × g for 20 minutes and washed once. The pellett was resuspended in Buffer A, incubated at 37° C. for 15 minutes, then centrifuged. The pellet was washed once more, resuspended to a protein concentration of 5-10 mg/ml in Buffer A and frozen at -70° C. until used.
(§3) The following tritiated drugs were used as radioligands for each of the receptors tested: [^3 H]-Spiperone 21-24 Ci/mmol for D2 receptors, [^3 H]-SCH23390 75-85 Ci/mmol for D1 receptors, and [^3 H]-Para aminoclonidine 48-52 Ci/mmol for α2 -adrenergic receptors. The radio-ligands were incubated with various concentrations of competing drug and the appropriate membrane source for periods of time as follows: 75 minutes at room temperature for D2 receptors, 30 minutes at 37° C. for D1 receptors, or 30 minutes at room temperature for α2 receptors. Specific binding was defined using 1μM butaclamol (D2), 1 μM SCH23390 (D1), or 1 μM yohimbine (α2). In addition the D2 assays contained 30 nM ketaserin in order to block the binding of ^3 H-spiperone to 5HT2 receptors.
(§4) The assays were terminated by filtration using a 24-port Brandell cell harvester over filters that had been previously soaked in 0.1% polyethyleneimine, and the filters were washed three times by filtration of cold buffer. The filters were then placed in 5 ml scintillation vials to which 4 ml of Beckman Ready-Protein was then added, and each vial was counted for 2 minutes in a Beckman 3801 scintillation counter calibrated for conversion of cpm to dpm. Binding data were analyzed using the Ligand program of Munson and Rodbard (1980). The results are presented as Ki values if the data were best fitted to a one-site model, or as KH and KL values if a two-site model produced the better fit.

dopamine D1 receptors = target: T2, dopamine D1 receptors (Bos taurus, UniProt Q95136); assay: Radioligand binding to dopamine D1 receptors ([3H]-SCH23390, bovine caudate nuclei membranes)
T2 construct: membranes derived from bovine caudate nuclei assay were employed; from tissue; host or cells: bovine caudate nuclei membranes (brains from a local slaughterhouse)
Protocol: as §1, §2, §3, §4

α2-adrenergic receptors = target: T3, α2-adrenergic receptors (Rattus norvegicus, UniProt P22909); assay: Radioligand binding to α2-adrenergic receptors ([3H]-Para aminoclonidine, rat cerebral cortex membranes)
T3 construct: rat cerebral cortex membranes were employed as a source of receptors; from tissue; host or cells: cerebral cortex membranes of male Sprague Dawley rats
T3 sequence (P22909 1-465): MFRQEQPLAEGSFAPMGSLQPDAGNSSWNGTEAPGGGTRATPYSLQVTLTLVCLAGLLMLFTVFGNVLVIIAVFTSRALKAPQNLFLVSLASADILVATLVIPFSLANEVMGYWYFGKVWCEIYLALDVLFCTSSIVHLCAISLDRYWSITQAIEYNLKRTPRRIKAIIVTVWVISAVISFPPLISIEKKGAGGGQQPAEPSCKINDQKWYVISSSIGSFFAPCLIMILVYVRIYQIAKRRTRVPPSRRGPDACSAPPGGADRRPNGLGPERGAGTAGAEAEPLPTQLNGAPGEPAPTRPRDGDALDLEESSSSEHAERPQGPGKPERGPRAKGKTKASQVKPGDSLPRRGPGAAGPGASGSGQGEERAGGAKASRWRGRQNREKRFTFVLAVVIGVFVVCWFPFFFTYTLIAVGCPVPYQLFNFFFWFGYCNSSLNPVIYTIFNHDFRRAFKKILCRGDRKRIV
Protocol: as §1
To test binding of the compounds to α2 -adrenergic receptors, rat cerebral cortex membranes were employed as a source of receptors. Male Sprague Dawley rats were killed by decapitation and the brains removed. The cerebral cortices were homogenized in 50 mM Tris; 2 mM MgCl2 (pH 7.4), and centrifuged at 40,000 × g for 10 minutes. The pellet was washed once, resuspended in Tris/MgCl2 and incubated with 8 units/ml adenosine deaminase at 37° C. for 30 minutes. The homogenate was centrifuged, washed once, resuspended to a protein concentration of 5-10 mg/ml and frozen at -70° C. until use.
as §3, §4

dopamine D2 = conditions: result in words; cited from earlier work
dopamine receptor = conditions: prior art, result in words; cited from earlier work
[1] = [3H]-Spiperone, bovine caudate membranes, 75 minutes at room temperature, 30 nM ketaserin, read-out: RECEPTOR AFFINITIES Ki, D2 (KL)
[2] = [3H]-SCH23390, bovine caudate membranes, 30 minutes at 37° C., read-out: RECEPTOR AFFINITIES Ki, D1 (KL)
[3] = [3H]-Para aminoclonidine, rat cerebral cortex membranes, 30 minutes at room temperature, read-out: RECEPTOR AFFINITIES Ki, α2

T2 sequence (Q95136 whole entry): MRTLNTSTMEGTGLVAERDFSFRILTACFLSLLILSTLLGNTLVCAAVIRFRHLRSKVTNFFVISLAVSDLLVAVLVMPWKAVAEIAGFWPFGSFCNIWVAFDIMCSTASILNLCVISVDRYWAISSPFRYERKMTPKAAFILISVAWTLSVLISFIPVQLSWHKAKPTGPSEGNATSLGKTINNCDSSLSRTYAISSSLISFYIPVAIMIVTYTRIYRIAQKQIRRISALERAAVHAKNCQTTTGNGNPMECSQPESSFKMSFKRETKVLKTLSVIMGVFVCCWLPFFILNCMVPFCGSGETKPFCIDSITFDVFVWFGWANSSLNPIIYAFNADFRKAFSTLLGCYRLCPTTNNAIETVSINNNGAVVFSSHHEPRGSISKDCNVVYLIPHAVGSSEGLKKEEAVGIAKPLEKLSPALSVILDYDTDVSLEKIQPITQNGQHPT
T1 sequence (P20288 whole entry): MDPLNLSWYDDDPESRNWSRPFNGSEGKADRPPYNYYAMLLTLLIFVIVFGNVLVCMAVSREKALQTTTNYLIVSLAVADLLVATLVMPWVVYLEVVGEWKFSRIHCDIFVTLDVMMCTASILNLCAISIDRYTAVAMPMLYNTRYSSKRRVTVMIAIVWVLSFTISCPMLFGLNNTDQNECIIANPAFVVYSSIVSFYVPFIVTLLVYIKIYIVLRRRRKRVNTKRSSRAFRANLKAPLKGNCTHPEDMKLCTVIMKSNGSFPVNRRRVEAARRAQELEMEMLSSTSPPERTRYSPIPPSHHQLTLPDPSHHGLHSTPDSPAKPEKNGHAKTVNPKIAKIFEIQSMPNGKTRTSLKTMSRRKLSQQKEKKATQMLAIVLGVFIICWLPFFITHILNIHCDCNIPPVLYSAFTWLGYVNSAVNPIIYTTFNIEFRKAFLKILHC

| Ki (dopamine D2 receptors; [1]) | Ki (dopamine D1 receptors; [2]) | Ki (α2-adrenergic receptors; [3]) | SMILES | also measured |
| --- | --- | --- | --- | --- |
| 1260 nM | 14000 nM | 10000 nM | CCCN(CCN1C(=O)c2ccccc2C1=O)C1CCc2c(O)cccc2C1 (stereo not shown) [Example 13, 2-[2-[propyl(1,2,3,4-tetrahydro-5-hydroxy-2-naphthalenyl)amino]ethyl]-1H-isoindole-1,3(2H)-dione] |  |
| 720 nM | 3000 nM | 1130 nM | CCCN(CCCN1Cc2ccccc2C1)C1CCc2c(O)cccc2C1 (stereo not shown) [Example 11, 6-[[3-(1,3-dihydro-2H-isoindol-2-yl)propyl]propylamino]-5,6,7,8-tetrahydro-1-napththalenol] |  |
|  |  |  | CCCN(CCc1cccs1)C1CCc2c(O)cccc2C1 (racemic) [Example N-0437, reference compound] | Ki (dopamine D2 receptors): 110 nM; Ki (dopamine D1 receptors): 1000 nM; Ki (α2-adrenergic receptors): 190 nM; dopamine D2 agonist potency (in words) (dopamine D2): potent dopamine D2 agonist |
|  |  |  | CCCN(CCCn1c(C)ccc1C)C1CCc2c(O)cccc2C1 (stereo not shown) [Example 2] | Ki (dopamine D2 receptors): 26 nM; affinity and selectivity for dopamine D2 receptors (in words) (dopamine D2 receptors; listed as 2,5-dimethyl-N-propyl-N-(1,2,3,4-tetrahydro-5-hydroxy-2-naphthalenyl)-1H-pyrrole): high affinity and selectivity for binding to D2 dopamine receptors; affinity and selectivity for dopamine D2 receptors (in words) (dopamine D2 receptors; listed as 6-[[3-(2,5-dimethyl-1H-pyrrol-1-yl)propyl]propylamino-5,6,7,8-tetrahydro-1-napht): high affinity and selectivity for binding to dopamine D2 receptors; Ki (dopamine D1 receptors): 2700 nM; Ki (α2-adrenergic receptors): 1600 nM |
| 1260 nM | 3230 nM | 142 nM | CCCN(CCCN1C(=O)c2ccccc2C1=O)C1CCc2c(O)cccc2C1 (stereo not shown) [Example 10, 2-[3-[propyl(1,2,3,4-tetrahydro-5-hydroxy-2-naphthalenyl)amino]propyl]-1H-isoindole-1,3(2H)-dione] |  |
| 52 nM | 4860 nM | 2630 nM | CCCN(CCN1Cc2ccccc2C1)C1CCc2c(O)cccc2C1 (stereo not shown) [Example 14, 6[[2-(1,3-dihydro-2H-isoindol-2-yl)ethyl]propylamino]-5,6,7,8-tetrahydro-1-naphthalenol] |  |
| 100 nM | 10000 nM | 1400 nM | CCCN(CCn1c(C)ccc1C)C1CCc2c(O)cccc2C1 (stereo not shown) [Example 4, 6-[[2-(2,5-dimethyl-1H-pyrrol-1-yl)ethyl]propylamino]-5,6,7,8-tetrahydro-1-naphthalenol] |  |
|  |  |  | CN1CCc2cccc3c2[C@H]1Cc1ccc(O)c(O)c1-3 [apomorphine] | dopaminergic activity (in words) (dopamine receptor): high activity |

Source: patent US5118704A, “Substituted 2-aminotetralins useful as dopaminergics” (Whitby Research, Inc., priority 1991, dated 1992)
